Data reported in patent publication US12404285B2, “KRAS G12D proteolysis targeting chimeras” (PAQ Therapeutics Inc., priority 2022, dated 2025).

Assays:
[1] = target: T1, KRAS in AGS cells (KRAS G12D mutant cell line) or LS180 cells (KRAS G12D mutant cell line) (Homo sapiens, UniProt P01116, G12D); assay: KRAS Western Blot (WB) assay; type: cell-based; settings: KRAS degradation, 24 hours incubation, normalized to β-actin
T1 construct: CRL-187 (LS180) (so in the source); host or cells: AGS or LS180 cells
Experimental: Day 1. Seeded AGS cells (KRAS G12D mutant cell line, ATCC, CRL-1739) or LS180 cells (KRAS G12D mutant cell line, ATCC, CRL-187) into 6-well plates (cell density: 3×10^5 cells/well/2 ml medium) in Ham's F-12 medium (Invitrogen, 11765-054) or Eagle's Minimum Essential Medium (ATCC, 30-2003) and incubated overnight at 37° C. and 5% CO2.
Day 2. Aspirated 1 ml medium from each well and added 1 ml medium containing DMSO or test compound into the well to achieve the desired final concentration. Mixed well by gentle shaking and incubated for 24 hours.
Day 3. Aspirated media from plates; washed cells with 2 ml 4° C. PBS (Solarbio, P1020-500) and aspirated the PBS. Then added 100 μl 4° C. […] lysis buffer (Boston BioProducts BP-115D) with protease and phosphatase inhibitors at vendor recommended concentrations (Roche 05892791001 and 04906837001) into each well to lyse the cells, and incubated for 20 minutes at 4° C. Cell lysate was collected into 1.5 ml Eppendorf tube, and the lysate was sonicated at 4° C. for 2 minutes (5 second pulse at 30% power with 10 second intermissions). The lysate was centrifuged at 12,000 rpm for 15 minutes at 4° C. The supernatant was transferred to a fresh Eppendorf tube, and protein concentration was quantified using a BCA kit (Solarbio, PC0020-500). Mixed the cell lysate and 5×NuPAGE SDS Loading Buffer (Beyotime, P0015L), and heated at 95° C. for 10 minutes in a heat block. Prepared samples were stored at −80° C. until SDS-PAGE procedure.
Day 4. Loaded 15 μg protein from each sample onto NuPAGE® Novex 4-12% Bis-Tris Midi Gel, 26 W (Invitrogen, WG1403BOX) and ran the gel at 120V for 1.5 hours in 1×NuPAGE® MOPS SDS Running Buffer (Novex, NP0001). Electrotransferred to nitrocellulose membrane using dry transfer method (iBlot 2 Transfer Stacks, nitrocellulose, IB23001) with a program consisting of 20V for 1 minute, 23V for 4 minutes and 25V for 2 minutes. Blocked the membrane with 5% BSA (Solarbio, A8020) in 1×TBST (CST, 9997S) for 1 hour at room temperature. Incubated with KRAS antibody (LSBio, LS-C175665, clone 2C1) at 1:1000 dilution and β-actin antibody at 1:1000 dilution (CST, 4970S) in TBST containing 1% BSA (Solarbio, A8020) at 4° C. overnight.
Day 5. Washed nitrocellulose membrane three times with 1×TBST for 10 minutes each at room temperature. Incubated with fluorescently labeled secondary antibodies at 1:5000 dilution in TBST containing 1% BSA (anti-rabbit IgG, Licor, 926-32211; anti-mouse IgG, LI-COR, 926-68070) for 1 hour at room temperature. Washed membrane three times with TBST, 10 minutes each. Scanned the membrane on LiCOR scanner for fluorescent signal(s) and quantified KRAS bands and β-actin bands for normalization.
The data are reported in Table 2, wherein “A” indicates a DC50 of less than 1 μM; “B” indicates a DC50 of greater than or equal to 1 μM and less than 10 μM; and “C” indicates a DC50 of greater than or equal to 10 μM.

[2] = target: T2, KRAS (G12D)-HiBit in AsPc-1-KRAS (G12D)-HiBit-KI cell (Homo sapiens, UniProt P01116, G12D); assay: G12D HiBit assay; type: cell-based; settings: 24 hours compound treatment, absolute DC50, read-out: Average PHA DC50
T2 construct: host or cells: AsPc-1-KRAS (G12D)-HiBit-KI cells (knock-in line)
Procedure, shortened: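 AsPc-1 cells with HiBiT knocked into KRAS G12D, seeded at 5×10^3/well and held overnight, then treated 24 h with 10-point 3-fold dilutions (300 nM to 0.015 nM). Lytic Nano-Glo HiBiT luminescence expressed as % of 0.1% DMSO control; absolute DC50 from curve fit.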

T1 sequence (P01116 1-188 isoform P01116-2 G12D): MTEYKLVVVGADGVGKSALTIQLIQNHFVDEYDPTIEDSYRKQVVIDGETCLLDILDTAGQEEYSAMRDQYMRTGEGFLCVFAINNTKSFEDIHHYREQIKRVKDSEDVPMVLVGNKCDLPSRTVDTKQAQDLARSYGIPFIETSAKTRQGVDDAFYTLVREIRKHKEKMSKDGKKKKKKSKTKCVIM
T2 sequence (P01116 1-188 isoform P01116-2 G12D): as above

SMILES | DC50 [1] | DC50 [2] [nM]
C#Cc1c(F)ccc2cc(O)cc(-c3ncc4c(N5CC6CCC(C5)N6)nc(OCC56CCCN5[C@H](COC(=O)NCCCCCCCCCNc5cccc7c5C(=O)N(C5CCC(=O)NC5=O)C7=O)CC6)nc4c3F)c12 (mixture of isomers) [Compound 023, (3RS,8RS)-[8-[[4-(3,8-Diazabicyclo[3.2.1]octan-3-yl)-7-(8-ethynyl-7-fluoro-3-hydroxy-1-naphthyl)-8-fluoro-pyrido[4,3-d]pyrimidin-2-yl]oxymethyl]-1,2,3,5,6,7-hexahydropyrrolizin-3-yl]methyl N-[9-[[2-(2,6-dioxo-3-piperidyl)-1,3-dioxo-isoindolin-4-yl]amino]nonyl]carbamate] | A (DC50 less than 1 μM) | –
C#Cc1c(F)ccc2cc(O)cc(-c3ncc4c(N5CC6CCC(C5)N6)nc(OC[C@@]56CCCN5[C@H](COC(=O)NCCCc5ccc7c(c5)n(C)c(=O)n7C5CCC(=O)NC5=O)CC6)nc4c3F)c12 (stereo partly drawn) [Compound 001, [(3S,8S)-8-[[4-(3,8-diazabicyclo[3.2.1]octan-3-yl)-7-(8-ethynyl-7-fluoro-3-hydroxy-1-naphthyl)-8-fluoro-pyrido[4,3-d]pyrimidin-2-yl]oxymethyl]-1,2,3,5,6,7-hexahydropyrrolizin-3-yl]methyl N-[3-[1-(2,6-dioxo-3-piperidyl)-3-methyl-2-oxo-benzimidazol-5-yl]propyl]carbamate] | C (DC50 greater than or equal to 10 μM) | –
C#Cc1c(F)ccc2cc(O)cc(-c3ncc4c(N5CC6CCC(C5)N6)nc(OC[C@@]56CCCN5[C@H](COC(=O)NCCc5ccc7c(c5)n(C)c(=O)n7C5CCC(=O)NC5=O)CC6)nc4c3F)c12 (stereo partly drawn) [Compound 002, [(3S,8S)-8-[[4-(3,8-diazabicyclo[3.2.1]octan-3-yl)-7-(8-ethynyl-7-fluoro-3-hydroxy-1-naphthyl)-8-fluoro-pyrido[4,3-d]pyrimidin-2-yl]oxymethyl]-1,2,3,5,6,7-hexahydropyrrolizin-3-yl]methyl N-[2-[1-(2,6-dioxo-3-piperidyl)-3-methyl-2-oxo-benzimidazol-5-yl]ethyl]carbamate] | C (DC50 greater than or equal to 10 μM) | –
C#Cc1c(F)ccc2cc(O)cc(-c3ncc4c(N5CC6CCC(C5)N6)nc(OC[C@@]56CCCN5[C@H](COC(=O)NCCCc5cccc7c5n(C)c(=O)n7C5CCC(=O)NC5=O)CC6)nc4c3F)c12 (stereo partly drawn) [Compound 003, [(3S,8S)-8-[[4-(3,8-diazabicyclo[3.2.1]octan-3-yl)-7-(8-ethynyl-7-fluoro-3-hydroxy-1-naphthyl)-8-fluoro-pyrido[4,3-d]pyrimidin-2-yl]oxymethyl]-1,2,3,5,6,7-hexahydropyrrolizin-3-yl]methylN-[3-[1-(2,6-dioxo-3-piperidyl)-3-methyl-2-oxo-benzimidazol-4-yl]propyl]carbamate] | C (DC50 greater than or equal to 10 μM) | –
C#Cc1c(F)ccc2cc(O)cc(-c3ncc4c(N5CC6CCC(C5)N6)nc(OC[C@@]56CCCN5[C@H](COC(=O)NCCc5cccc7c5n(C)c(=O)n7C5CCC(=O)NC5=O)CC6)nc4c3F)c12 (stereo partly drawn) [Compound 004, [(3S,8S)-8-[[4-(3,8-diazabicyclo[3.2.1]octan-3-yl)-7-(8-ethynyl-7-fluoro-3-hydroxy-1-naphthyl)-8-fluoro-pyrido[4,3-d]pyrimidin-2-yl]oxymethyl]-1,2,3,5,6,7-hexahydropyrrolizin-3-yl]methyl N-[2-[1-(2,6-dioxo-3-piperidyl)-3-methyl-2-oxo-benzimidazol-4-yl]ethyl]carbamate] | C (DC50 greater than or equal to 10 μM) | –
C#Cc1c(F)ccc2cc(O)cc(-c3ncc4c(N5CC6CCC(C5)N6)nc(OC[C@@]56CCCN5[C@H](COC(=O)NCCCCCc5ccc7c(c5)n(C)c(=O)n7C5CCC(=O)NC5=O)CC6)nc4c3F)c12 (stereo partly drawn) [Compound 005, [(3S,8S)-8-[[4-(3,8-diazabicyclo[3.2.1]octan-3-yl)-7-(8-ethynyl-7-fluoro-3-hydroxy-1-napht-hyl)-8-fluoro-pyrido[4,3-d]pyrimidin-2-yl]oxymethyl]-1,2,3,5,6,7-hexahydropyrrolizin-3-yl]methyl N-[5-[1-(2,6-dioxo-3-piperidyl)-3-methyl-2-oxo-benzimidazol-5-yl]pentyl]carbamate] | C (DC50 greater than or equal to 10 μM) | –
C#Cc1c(F)ccc2cc(O)cc(-c3ncc4c(N5C[C@H]6CC[C@@H](C5)N6)nc(OC[C@@]56CCCN5[C@H](COC(=O)NCCCCc5ccc7c(c5)n(C)c(=O)n7C5CCC(=O)NC5=O)CC6)nc4c3F)c12 (stereo partly drawn) [Compound 006, ((3S,7aS)-7a-(((4-((1R,5S)-3,8-diazabicyclo[3.2.1]octan-3-yl)-7-(8-ethynyl-7-fluoro-3-hydroxynaphthalen-1-yl)-8-fluoropyrido[4,3-d]pyrimidin-2-yl)oxy)methyl)hexahydro-1H-pyrrolizin-3-yl)methyl (4-(1-(2,6-dioxopiperidin-3-yl)-3-methyl-2-oxo-2,3-dihydro-1H-benzo[d]imidazol-5-yl)butyl)carbamate] | C (DC50 greater than or equal to 10 μM) | –
C#Cc1c(F)ccc2cccc(-c3ncc4c(N5CC6CCC(C5)N6)nc(OC[C@@]56CCCN5[C@H](COC(=O)NCCCCC(=O)N5CCN(c7ccc(N8CCC(=O)NC8=O)cc7)CC5)CC6)nc4c3F)c12 [Compound 147, [(3S,8S)-8-[[4-(3,8-Diazabicyclo[3.2.1]octan-3-yl)-7-(8-ethynyl-7-fluoro-1-naphthyl)-8-fluoro-pyrido[4,3-d]pyrimidin-2-yl]oxymethyl]-1,2,3,5,6,7-hexahydropyrrolizin-3-yl]methyl N-[5-[4-[4-(2,4-dioxohexahydropyrimidin-1-yl)phenyl]piperazin-1-yl]-5-oxo-pentyl]carbamate] | – | ≥ 300
C#Cc1c(F)ccc2cccc(-c3ncc4c(N5CC6CCC(C5)N6)nc(OC[C@@]56CCCN5[C@H](COC(=O)NCCCCCC(=O)N5CCN(c7ccc(N8CCC(=O)NC8=O)cc7)CC5)CC6)nc4c3F)c12 [Compound 148, ((3S,7aS)-7a-(((4-(3,8-Diazabicyclo[3.2.1]octan-3-yl)-7-(8-ethynyl-7-fluoronaphthalen-1-yl)-8-fluoropyrido[4,3-d]pyrimidin-2-yl)oxy)methyl)hexahydro-1H-pyrrolizin-3-yl)methyl(6-(4-(4-(2,4-dioxotetrahydropyrimidin-1(2H)-yl)phenyl)piperazin-1-yl)-6-oxohexyl)carbamate] | – | ≥ 300
C#Cc1c(F)ccc2cccc(-c3ncc4c(N5CC6CCC(C5)N6)nc(OC[C@@]56CCCN5[C@H](COC(=O)NCCCCCCC(=O)N5CCN(c7ccc(N8CCC(=O)NC8=O)cc7)CC5)CC6)nc4c3F)c12 [Compound 149, [(3S,8S)-8-[[4-(3,8-Diazabicyclo[3.2.1]octan-3-yl)-7-(8-ethynyl-7-fluoro-1-naphthyl)-8-fluoro-pyrido[4,3-d]pyrimidin-2-yl]oxymethyl]-1,2,3,5,6,7-hexahydropyrrolizin-3-yl]methyl N-[7-[4-[4-(2,4-dioxohexahydropyrimidin-1-yl)phenyl]piperazin-1-yl]-7-oxo-heptyl]carbamate] | – | ≥ 300
